One series relates to H3K27me3. Nature of the series: Pharmacodynamic analysis of H3K27me3 in KARPAS422 xenograft tumor tissue. The series is classed as in vivo, SCID mice. The note with it: single 100 mg/kg oral administration, 24 h, Western blotting.
Series [1] in a line: Animal body weights during the KARPAS422 xenograft efficacy experiment. The series is classed as in vivo, SCID mice. The note with it: 50 and 100 mg/kg oral gavage daily for 28 days.
For another series, the target named is EED (1–441)-His protein (Homo sapiens, UniProt O75530). In words: EED-H3K27me3 peptide competition binding assay by AlphaScreen. Conditions: vs compound 21. Background: Alpha assays give light when donor and acceptor beads are brought close together.
In series [2] the test system is KARPAS422 xenograft model. In words: Antitumor activity in the KARPAS422 xenograft model. The format is in vivo, SCID mice. The note with it: for tumor regression in KARPAS422 xenograft model: 50 and 100 mg/kg via oral gavage, daily for 28 days.
A further series has as its system tumor growth. Conditions: 300 mg/kg twice a week subcutaneous injections for 5 weeks; cited from earlier work.
A further series relates to KARPAS422 cell tumor. Conditions: 300 mg/kg twice daily via oral gavage; cited from earlier work.

The text below walks through data of publication PMC8859984 (Journal of medicinal chemistry, 2020).

“Also recorded” adds a separate entry of the source.

Chain of EED (1–441)-His protein (O75530 whole entry): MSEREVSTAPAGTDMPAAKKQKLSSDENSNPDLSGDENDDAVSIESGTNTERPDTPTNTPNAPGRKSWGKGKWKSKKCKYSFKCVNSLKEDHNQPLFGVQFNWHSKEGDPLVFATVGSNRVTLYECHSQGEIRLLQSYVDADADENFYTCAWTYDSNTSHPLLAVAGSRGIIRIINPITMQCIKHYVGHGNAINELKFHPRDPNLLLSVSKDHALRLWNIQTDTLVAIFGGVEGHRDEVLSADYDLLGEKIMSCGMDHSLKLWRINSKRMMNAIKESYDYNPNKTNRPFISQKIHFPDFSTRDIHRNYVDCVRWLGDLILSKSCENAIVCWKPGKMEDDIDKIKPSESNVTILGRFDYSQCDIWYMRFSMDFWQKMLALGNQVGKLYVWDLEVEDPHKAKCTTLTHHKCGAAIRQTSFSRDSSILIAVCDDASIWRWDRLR

As for `CS(=O)(=O)c1ncn2c(NCc3c(F)ccc4c3CCO4)ncc(-c3ccc(C4CC4)nc3)c12` [Compound 28, 8-(6-Cyclopropylpyridin-3-yl)-N-((5-fluoro-2,3-dihydrobenzofuran-4-yl)methyl)-1-(methylsulfonyl)imidazo[1,5-c]pyrimidin-5-amine], the “level of H3K27me3 in KARPAS422 tumor tissue” value in the series on H3K27me3 is recorded as “effectively reduces the level of H3K27me3”. For the same compound, the “times more potent than 21 in inhibition of KARPAS422 cell growth” value in the series with KARPAS422 cells (vs compound 21) was 3–4 times. For the same compound, the “animal weight loss during the entire experiment” value in series [1] is “minimal weight loss”. Besides, the “times more potent than 21 in binding to EED” value on EED (1–441)-His protein is reported as 3–4 times. For the same compound, the “tumor regression in KARPAS422 xenograft model” value in series [2] (listed as EEDi-5285) was “complete and durable tumor regression; also recorded: complete and long-lasting tumor regression”. Moreover, the “regrowth of tumors after end of treatment” value in series [2] (after treatment had been stopped for 72 days, 50 and 100 mg/kg oral daily for 28 days) is recorded as “no regrowth of tumors was observed”.
Consider `CN(C)[C@H]1CN(C2CCc3cccc(F)c32)C[C@@H]1c1ccc(N2CCN(S(C)(=O)=O)CC2)cc1` (stereo partly shown) [Compound A-395], for which the “inhibition of tumor growth” value in the series with tumor growth was 84%.
As to `CS(=O)(=O)c1ccc(-c2cnc(NCc3ccco3)n3cnnc23)cc1` [EED226], the “KARPAS422 cell tumor regression” value in the series on KARPAS422 cell tumor is listed as “complete KARPAS422 cell tumor regression”.
For `CCOC(=O)c1ncn2c(NCc3ccccc3)ncc(-c3ccccc3)c12` [Compound 10, Ethyl 5-(Benzylamino)-8-phenylimidazo[1,5-c]pyrimidine-1-carboxylate], the “times less potent than 8 in cellular assay” value with KARPAS422 cells (vs compound 8, KARPAS422) was 2–3 times.
Turning to `CS(=O)(=O)c1ncn2c(NCc3c(F)ccc4c3CCO4)ncc(-c3ccc(C(F)F)nc3)c12` [Compound 29, 8-(6-(Difluoromethyl)pyridin-3-yl)-N-((5-fluoro-2,3-dihydrobenzofuran-4-yl)methyl)-1-(methylsulfonyl)imidazo[1,5-c]pyrimidin-5-amine], at EED (1–441)-His protein, the “times more potent than 21 in binding to EED” value is given as 5 times.
As to `CCOC(=O)c1ncn2c(NCc3c(F)cccc3OC)ncc(-c3ccccc3)c12` [Compound 12, Ethyl 5-((2-Fluoro-6-methoxybenzyl)amino)-8-phenylimidazo-[1,5-c]pyrimidine-1-carboxylate], the “times more potent than 11 in cell growth inhibition in KARPAS422” value in the series on KARPAS422 cells (vs compound 11) worked out at 6 times.
On to `Cc1ccc(-c2cnc(NCc3c(F)ccc4c3CCO4)n3cnc(S(C)(=O)=O)c23)c(C)n1` [Compound 32, 8-(2,6-Dimethylpyridin-3-yl)-N-((5-fluoro-2,3-dihydrobenzofuran-4-yl)methyl)-1-(methylsulfonyl)imidazo[1,5-c]pyrimidin-5-amine], for which, in the series with H3K27me3, the “level of H3K27me3 in KARPAS422 tumor tissue” value is on record as “effectively reduces the level of H3K27me3”. The “tumor regression in KARPAS422 xenograft model” value in series [2] (listed as EEDi-1056) is “complete tumor regression”.
On to `CCOC(=O)c1ncn2c(NCc3cc(OC)ccc3F)ncc(-c3ccccc3)c12` [Compound 13, Ethyl 5-((2-Fluoro-5-methoxybenzyl)amino)-8-phenylimidazo-[1,5-c]pyrimidine-1-carboxylate], for which, in the series on KARPAS422 cells (vs compound 12), the “times less potent than 12 in cell growth inhibition in KARPAS422” value is 8 times.
With `CS(=O)(=O)c1ncn2c(NCc3c(F)ccc4c3CCO4)ncc(C3CCOCC3)c12` [Compound 35, N-((5-Fluoro-2,3-dihydrobenzofuran-4-yl)methyl)-1-(methylsulfonyl)-8-(tetrahydro-2H-pyran-4-yl)imidazo[1,5-c]pyrimidin-5-amine], in the series with KARPAS422 cells (vs compound 21), the “times less potent than 21 in inhibition of KARPAS422 cell growth” value is reported as 24 times. Also, the “times less potent than 21 in binding to EED” value at EED (1–441)-His protein was 17 times.
Turning to `CCOC(=O)c1ncn2c(NCc3ccco3)ncc(-c3ccccc3)c12` [Compound 8, Ethyl 5-((Furan-2-ylmethyl)amino)-8-phenylimidazo[1,5-c]-pyrimidine-1-carboxylate], the “times more potent than 7 in inhibition of cell growth in KARPAS422” value in the series with KARPAS422 cells (vs compound 7) was found to be 2 times.
On to `CS(=O)(=O)c1ncn2c(NCc3c(F)ccc4c3CCO4)ncc(-c3ccc(F)cc3)c12` [Compound 24, N-((5-Fluoro-2,3-dihydrobenzofuran-4-yl)methyl)-8-(4-fluorophenyl)-1(methylsulfonyl)imidazo[1,5-c]pyrimidin-5-amine], for which the “times less potent than 21 in inhibition of KARPAS422 cell growth” value in the series with KARPAS422 cells (vs compound 21) is 2–3 times.
On to `CCOC(=O)c1ncn2c(NCc3cccc4c3CCO4)ncc(-c3ccccc3)c12` [Compound 17, Ethyl 5-(((2,3-Dihydrobenzofuran-4-yl)methyl)amino)-8-phenylimidazo[1,5-c]pyrimidine-1-carboxylate], for which, in the series with KARPAS422 cells (vs compound 16), the “times more potent than 16 in inhibition of cell growth in KARPAS422” value turned out to be 30 times.
